What all share (format): cell-based
Test [1] concerns B. subtilis colonies. Kind of test: B. subtilis colony biofilm on B4 agar with Ca acetate.
The test system of test [2] is B. subtilis. The experiment in a line: Planktonic growth (OD600) of B. subtilis in B4 medium. To be noted: B4 medium with Ca, AHA concentrations giving smooth colonies (FIG. 3C upper). As for the experimental part:
(§1) B. subtilis and M. smegmatis colonies grown on 1.5% B4 agar, supplemented with Ca acetate. FIG. 3A is a schematic representation of the biomineralization reactions leading to bicarbonate production. […] Scale bars represent 2 mm. […] DMSO served as a positive control and a medium not supplemented with Ca served as a negative control. Scale bars represent 2 mm. […] Colonies were grown in a medium supplemented with 0.025% Ca and treated with 10 mg/ml AHA. DMSO served as a positive control and a medium not supplemented with Ca served as a negative control. Scale bars represent 2 mm in the upper panels; and 0.5 mm in the lower panels.
(§2) Growth Analysis—To determine growth kinetics of planktonic bacteria,the cultures were grown for 15-30 hours at 30° C. in a plate reader (BioTek, Winooski, Vt., USA) and the optical density at 600 nm (OD600) was measured every 20 minutes. Results are presented as averages for 5-6 wells from a single representative experiment out of three.

The next test deals with M. smegmatis colonies. Kind of test: M. smegmatis colony biofilm on B4 agar with Ca acetate.
The subject of test [3] is M. smegmatis planktonic cells. Kind of test: Planktonic growth (OD600) of M. smegmatis in B4 medium. Conditions: B4 medium with Ca (FIG. 3C lower). Here is the method:
as §1, §2

Test [4] relates to B. subtilis. The experiment in a line: Pellicle biofilm model, B. subtilis in liquid B4. As for the experimental part:
(§3) B. subtilis (FIG. 4A) and M. smegmatis (FIG. 4B) cells were grown in liquid B4 supplemented with 0.25% and 0.025% calcium acetate, respectively, and treated with AHA at the indicated concentrations. DMSO served as a positive control and a medium not supplemented with Ca served as a negative control. The images of the top view of the wells were taken following robust pellicles formed in the DMSO control—at 3 days for B. subtilis and at 4 days for M. smegmatis.
B. subtilis cells were grown in liquid B4 supplemented with 0.25% calcium acetate and treated with AHA at the indicated concentrations. DMSO served as a positive control and a medium not supplemented with Ca served as a negative control. The images of the top view of the wells were taken following 6 days; and the weight of the mineral was determined following removal of all organic material by bleaching.
Analysis of the weight of the minerals—(A) Thermogravimetric analysis (TGA) of the B. subtilis colonies was performed as described previously [Levi-Kalisman et al., J Chem Soc Dalton (2000), 3977-3982] for at-least three colonies materials combined for each time point. The weight loss associated with the calcite relates to the temperature range 650-800° C. Results are presented as an average of at-least three independent experiments. […]

For the next test, the system named is M. smegmatis. Kind of test: Pellicle biofilm model, M. smegmatis in liquid B4. Conditions: liquid B4, 0.025% calcium acetate, 4 days (FIG. 4B). As for the experimental part: as §3
Test [5] has as its system B. subtilis colonies. The experiment in a line: FITC diffusion in colony cross-sections. Conditions: day 3 B. subtilis colonies, 0.025% Ca, 10 mg/ml AHA, 4 hours after FITC (FIG. 3E). As for the experimental part:
as §1
Imaging—All images were taken using a Nikon D3 camera or a Stereo Discovery V20″ microscope (Tochigi, Japan) with objectives Plan Apo S ×0.5 FWD 134 mm or Apo S ×1.0 FWD 60 mm (Zeiss, Goettingen, Germany) attached to a high-resolution microscopy Axiocam camera. Data were created and processed using Axiovision suite software (Zeiss). To visualize colony cross-sections, a warm low-melt agar was poured over the colony following incubation with FITC, and allowed to solidify at room temperature (RT). Following, slices were made with a razor blade and immediately visualized. All experiments were repeated at least 3 times, in technical triplicates, with similar results.

For test [6], the system named is P. aeruginosa. Kind of test: P. aeruginosa biofilm formation, Crystal Violet Staining. To be noted: for biofilm development: P. aeruginosa submerged biofilm, single inhibitor (FIG. 6); for biofilm formation / combination effect on biofilm formation: P. aeruginosa; for biofilm formation: single inhibitor (FIGS. 13-14). As for the experimental part: (§4) Crystal Violet—From each individual culture, 20 μl samples from exponential phase and 180 μl of TSB broth were dispensed in the wells of sterile 96-wells flat-bottomed microtiter plate (Nunc) and incubated at 37° C. for 24 hours. The control well contained only TSB broth without inoculation. Following incubation, unbound cells were removed by inversion of the microtiter plate, followed by vigorous tapping on an absorbent paper. Subsequently, adhered cells were fixed for 30 minutes at […]. Adhered cells were stained by addition of 220 μl of crystal violet (0.5%) for 5 minutes. The stain was removed by exhaustive washing with distilled water. The plates were then allowed to dry. In order to quantify adhered cells, 220 μl of decoloring solution (95% ethanol) was added to each well for 15 minutes. The absorption of the eluted stain was measured at 590 nm.

Test [7] concerns P. aeruginosa pre-existing biofilm. Kind of test: P. aeruginosa pre-existing biofilm, Crystal Violet Staining. Conditions: biofilms grown 12 hours in TSB, treated 6 hours in PBS (FIG. 8). As for the experimental part: P. aeruginosa biofilms were grown in multi-well 24 wells plates in TSB for 12 hours. Following, biofilms were treated either in PBS or PBS applied with the indicated concentrations of sodium vanadate, DTNB or AHA for 6 hours. Results are shown as intensity of crystal violet staining (OD595) compared with the initial absorbance prior to treatment.
as §4

Test [8] has as its system P. aeruginosa. The experiment in a line: Planktonic growth of P. aeruginosa. To be noted: inhibitor concentrations used, data not shown. As for the experimental part: as §2
Test [9] deals with P. aeruginosa. The experiment in a line: Survival of P. aeruginosa biofilm after exposure to ciprofloxacin or gentamicin (CFU). To be noted: alone or in combination (FIGS. 7 and 9). As for the experimental part:
P. aeruginosa biofilms were grown in multi-well 24 wells plates in TSB for 12 hours. Following, biofilms were treated either in PBS or PBS applied with the indicated concentrations of DTNB, AHA, CIP and/or GM for 6 hours. Following treatment, the biofilms were mildly sonicated and serially diluted to assess the number of CFU within each group.

Test [10] deals with P. aeruginosa. The experiment in a line: Ex vivo lung infection system (mouse lung explants infected with P. aeruginosa). Conditions: 37° C.; for lung colonization by P. aeruginosa / lung tissue death: mouse lung explants, ~2 days (FIGS. 10D and 11); for tissue damage (Hematoxylin/eosin histology): mouse lung tissue with P. aeruginosa, 2 days. The text has this:
FIG. 10A is a scanning Electron Microscopy (SEM) image of biofilms of partially bleached sputum sample from P. aeruginosa positive CF patient A4, containing bleach-resistant mineralized tissue. FIG. 10B is a SEM image of biofilms of partially bleached sputum sample from P. aeruginosa positive CF patient A62 (left), accompanied by an image taken with the backscattering mode (right), containing bleach-resistant mineralized tissue. […] P. aeruginosa strain PA14 expressing GFP (green) was used to infect a lung tissue (nucleoli of lung cells were stained with DAPI—blue). Lung tissue was harvested from one month old mice and incubated in DMEM 5% FCS at 37° C. for 2 days, in the presence of P. aeruginosa, sectioned and visualized. […] Lungs were harvested from one month old mice and tissue was incubated in DMEM 5% FCS, either with or without AHA, as indicated. To each sample, either P. aeruginosa or DMEM (control) was added. Samples were incubated at 37° C. for 2 days, sectioned, stained with Hematoxylin/eosin stain and visualized.
Lungs were harvested from one month old mice and tissue was incubated in DMEM 5% FCS, either with or without DTNB, as indicated. To each sample, either P. aeruginosa or DMEM (control) was added. Samples were incubated at 37° C. for 2 days, sectioned, stained with Hematoxylin/eosin stain and visualized.
Ex vivo lung infection system—Lungs were harvested from 2 mice (one month old) and placed in petri dishes containing DMEM 5% FCS. The tissue was divided into circular pieces 4 mm in diameter with a biopsy punch and transferred to a 24 wells plate (4-5 explants/well) with 450 μl DMEM containing 100 μg/ml carbenicillin (Sigma-Aldrich) and 0, 2.5, or 5 mg/ml AHA or DTNB. To each respective well, either 50 μl DMEM (control) or P. aeruginosa pretreated with 0, 2.5, or 5 mg/ml AHA or with 0, 1, 5 or 10 mM DTNB and diluted within DMEM to attain OD600 0.373 or 0.257, respectively, were added, with three technical repeats for each condition. The plates were incubated at 37° C. for ˜2 days (48-52 hours) and washed twice with PBS, fixed with PFA 4% for 10 minutes, and embedded in either cryosection (OCT) compound or paraffin. Paraffin samples were cut into 7 micron slices and stained with H&E; whereas cryosections were cut into 10 micron slices and placed on superfrost plus slides.

Consider `CC(=O)NO` [AHA, acetohydroxamic acid], for which, in the test with B. subtilis colonies [1] (B. subtilis colonies on 1.5% B4 agar with Ca acetate (FIGS. 3A-E)), the “growth, biofilm development and biomineralization of colonies” value is “inhibits growth, biofilm development and biomineralization”. Besides, the colony morphology result with B. subtilis colonies [1] (B. subtilis, medium with 0.25% Ca, AHA at indicated doses (FIG. 3B)) was “smooth colony morphology”; in the test on M. smegmatis colonies (0.025% Ca, AHA concentrations tolerated by planktonic cells (FIG. 3D)), “less wrinkled colonies”. Further, the “effect on planktonic growth” value with B. subtilis [2] and in the test on P. aeruginosa [8] was “little or no effect on planktonic growth” throughout. Moreover, the “growth, biofilm development and biomineralization” value with M. smegmatis colonies (inhibition of urease activity) was “inhibited growth, biofilm development and biomineralization”. Further, the “tolerance by planktonic cells” value in test [3] was “well-tolerated”. In the test with B. subtilis [4] (B. subtilis pellicle, 0.25% calcium acetate, 6 days, mineral weight after bleaching (FIG. 5)), the non-soluble mineral production result is on record as “decreased non-soluble mineral production”. Further, the “growth, biofilm development and biomineralization in pellicle biofilm model” value in the test with B. subtilis [4] (B. subtilis, liquid B4, 0.25% calcium acetate, 3 days (FIG. 4A)) was “inhibits growth, biofilm development and biomineralization”; in the test on M. smegmatis, “inhibits growth, biofilm development and biomineralization”. In the test with B. subtilis colonies [5], the “formation of diffusion barriers within the colony” value was “prevented the formation of the diffusion barriers within the colony”. The biofilm development entry in the test with P. aeruginosa [6] is on record as “impaired biofilm development”. Besides, the biofilm formation entry in the test on P. aeruginosa [6] was “inhibited biofilm formation”. Further, the “dispersal of pre-existing biofilm” value in [7] is “able to disperse a pre-existing P. aeruginosa biofilm”. Also, the “sensitization to ciprofloxacin and gentamicin” value in the test with P. aeruginosa [9] was “sensitized the P. aeruginosa colonies to treatment with ciprofloxacin and gentamicin”. Moreover, the “lung colonization by P. aeruginosa” value in the test on P. aeruginosa [10] is recorded as “diminished lung colonization by P. aeruginosa”. Moreover, the lung tissue death entry in the test on P. aeruginosa [10] was “prevented lung tissue death”. Further, the “tissue damage (Hematoxylin/eosin histology)” value in the test on P. aeruginosa [10] is “prevents tissue damage”.

Consider `O=C(O)c1cc(SSc2ccc([N+](=O)[O-])c(C(=O)O)c2)ccc1[N+](=O)[O-]` [DTNB, 5,5′-Dithiobis (2-nitrobenzoic acid, DTNB)], for which, in the test with P. aeruginosa [6], the biofilm development entry is listed as “impaired biofilm development” and the biofilm formation result was “inhibited biofilm formation”. In addition, in test [7], the “dispersal of pre-existing biofilm” value is listed as “able to disperse a pre-existing P. aeruginosa biofilm”. Moreover, in the test on P. aeruginosa [8], the “effect on planktonic growth” value was “little or no effect on planktonic growth”. Further, the “sensitization to ciprofloxacin and gentamicin” value in the test with P. aeruginosa [9] was “sensitized the P. aeruginosa colonies to treatment with ciprofloxacin and gentamicin”. Also, in the test on P. aeruginosa [10], the “lung colonization by P. aeruginosa” value is recorded as “diminished lung colonization by P. aeruginosa”, the lung tissue death entry was “prevented lung tissue death” and the “tissue damage (Hematoxylin/eosin histology)” value is “prevents tissue damage”.

With sodium vanadate, the “combination effect on biofilm formation” value in the test with P. aeruginosa [6] (in combination with AHA (FIG. 13)) and in the test with P. aeruginosa [6] (in combination with DTNB (FIG. 14)) was “synergistic” throughout. Further, in the test with P. aeruginosa [6], the biofilm formation result is “inhibited biofilm formation”.

Values taken from US20210015889A1, “METHODS OF DISRUPTING A BIOFILM AND/OR PREVENTING FORMATION OF SAME” (Yeda Research and Development Co. Ltd., priority 2018, published 2021).
